Like-named read-outs stand apart in the source and are kept apart here.
Columns and labels:
[1] = test system: carrageenan pleurisy (3 hour pleural exudate volume); experiment: Carrageenan Pleurisy Assay (CPA), acute anti-inflammatory activity, oral dosing; format: in vivo; details: for ED50: po, dose reducing the 3 hour exudate volume by 50%, p.o., 5 animals per group, read-out: ED50 3 hr. vol. p.o.
Method: Following the procedure previously described by Vinegar et al. in Proc. Soc. Exp. Biol. Med., 143, 711, (1973) as recently modified /Vinegar et al., Eur. J. Rheum. Inflamm., 1, 204 (1978)/ the acute anti-inflammatory activity of 3-deazaadenosine was compared with that of known anti-inflammatory drugs. The average 3 hour exudate volume for each drug treated group was determined and the % inhibition relative to solvent-fed control animals calculated, the ED 50 (mg/kg body weight) being the dose required to reduce the 3 hour exudate volume by 50%. There were 5 animals in each drug-treated group and the control group.
By means of the Carrageenan Pleurisy Assay of Example 1 the duration of action of the tests compounds after a single oral pretreating dose was determined. For 3-deazaadenosine the effect lasted for 14.9 hours at 6 mg/kg (p.o.) whilst for aspirin (150 mg/kg p.o.) and acetaminophen (220 mg/kg p.o.) the effect lasted for […] and 2 hours respectively. This value represents the time (hours) of drug administration prior to the injection of carrageenan in which the inhibition of the 3 hour pleural exudate volume declined to 40%.

[2] = test system: carrageenan pleurisy (3 hr. exudate volume); experiment: Carrageenan Pleurisy Assay (CPA), local (intra-pleural) anti-inflammatory activity; format: in vivo; details: read-out: ED50 3 hr. vol. local (intra-pleural)
Description: Following the procedure described by Vinegar et al. /Eur. J. Rheum. […] There were 5 animals in each drug-treated group and the control group.

adjuvant arthritis = experiment: Adjuvant arthritis, developing and established, arthritic joint scores; format: in vivo; details: Rattus norvegicus, rats; for ED25: feed or water, 1008 h, drug in diet from day 21 to 42; for ED50: po, 384 h, drug in diet from day 1 to day 16
Method: The effect of 3-deazaadenosine in rats againt both developing and established adjuvant arthritis was determined by the method described by R. Vinegar et al. Journal of Immunopharmacology. 1, 483, (I979). The scoring procedure of A.L.F. Currey and M. Ziff, J. Exp. Med., 121, 185 (1968) was used to assess the arthritic joint scores of rats. There were 5 animals in each drug-treated group. For developing adjuvant arthritis the drugs were administered in the diet from day 1 to day 16. For established adjuvant arthritis the drugs were administered from day 21 to 42.

lipoxygenase = experiment: Prostaglandin metabolism in vitro, lipoxygenase pathway; format: biochemical
cyclooxygenase = experiment: Prostaglandin metabolism in vitro, cyclooxygenase pathway; format: biochemical
Antipyretic activity = details: in vivo
Analgesic activity = format: in vivo; details: per se
liver = experiment: Liver damage in animal models; format: in vivo; details: animal models used
Half life = details: in vivo
Water solubility = format: physicochemical
Therapeutic index = details: in vivo
immune response = details: earlier disclosed activity (UK Patent Application No. 40447/78); cited from earlier work
[3] = earlier disclosed activity (US Patent No. 4 148 888); cited from earlier work

## Nc1nccc2c1ncn2[C@@H]1O[C@H](CO)[C@@H](O)[C@H]1O [3-Deazaadenosine, 4-amino-1-β-D-ribofuranosyl-1H-imidazo-[4,5-c]-pyridine]
[1]; general statement in the description, no dose given
  duration of action: about 15 hours
[1]
  ED50: 2.8 ± 0.65 mg/kg
[1]; single oral pretreating dose 6 mg/kg (p.o.), time before carrageenan at which inhibition of 3 hour pleural exudate volume declined to 40%
  duration of action: 14.9 h
[2]; local (intra-pleural) administration, 5 animals per group
  ED50: 0.05 mg/kg
Adjuvant arthritis
  ED25: ~18 mg/kg/day
  ED50: 8 ± 2.8 mg/kg
lipoxygenase
  inhibition of prostaglandin metabolism, lipoxygenase pathway: does not inhibit
cyclooxygenase
  inhibition of prostaglandin metabolism, cyclooxygenase pathway: does not inhibit
Antipyretic activity
  antipyretic activity: not antipyretic
Analgesic activity
  analgesic activity: no analgesic activity
liver
  liver damage: does not cause liver damage
Half life
  half life: short half life
Water solubility
  water solubility: high water solubility
Therapeutic index
  therapeutic index: high therapeutic index
Immune response
  dose required for immunesuppression: more than 30 mg/kg
[3]
  dose required for antiviral activity: 100-200 mg/kg per day

## CC(=O)Oc1ccccc1C(=O)O [Aspirin]
[1]
  ED50: 28 ± 3.2 mg/kg
[1]; single oral pretreating dose 150 mg/kg p.o., time before carrageenan at which inhibition of 3 hour pleural exudate volume declined to 40%
  duration of action: 35 h
[2]
  ED50: 0.04 mg/kg
Adjuvant arthritis
  ED25: 150 mg/kg/day
  ED50: 150 ± 53.1 mg/kg

## C[C@]12CCC(=O)C=C1CC[C@@H]1[C@@H]2[C@@H](O)C[C@@]2(C)[C@H]1CC[C@]2(O)C(=O)CO [Hydrocortisone]
[1]
  ED50: 14 ± 10.2 mg/kg
[2]
  ED50: 0.1 mg/kg

## CC(=O)Nc1ccc(O)cc1 [acetaminophen]
[1]; single oral pretreating dose 220 mg/kg p.o., time before carrageenan at which inhibition of 3 hour pleural exudate volume declined to 40%
  duration of action: 2 h

## C[C@]12C=CC(=O)C=C1CC[C@@H]1[C@@H]2[C@@H](O)C[C@@]2(C)[C@H]1CC[C@]2(O)C(=O)CO [Prednisolone]
[1]
  ED50: 3 ± 0.5 mg/kg
Adjuvant arthritis
  ED25: 0.2 mg/kg/day
  ED50: 1 ± 0.7 mg/kg

Source: patent EP0038567A1, “Deazapurine nucleoside, formulations thereof, and use thereof in therapy” (THE WELLCOME FOUNDATION LIMITED, priority 1980, dated 1981)
